≈ marks a conversion by molar mass, not a printed value.
Test: Cytotoxicity against human NSCLC-N6 cells by colorimetric assay
Assay type: functional, cell-based

O=C(c1nc(-c2c[nH]c3cc(Br)ccc23)c[nH]1)c1c[nH]c2cc(O)ccc12 [BROMOTOPSENTIN]
IC50: 6.3 µg/mL (≈ 15 µM)

O=C(c1nc(-c2c[nH]c3ccccc23)c[nH]1)c1c[nH]c2cc(O)ccc12 [TOPSENTIN]
IC50: 12 µg/mL (≈ 35.1 µM)
